Experimental data published in patent US12291501B2 (University of Florida Research Foundation, Inc., priority 2021, dated 2025).
Values joined by “and” are separate entries in the source; they are usually repeats but may differ in a detail not shown here. Identical values can stand only once.

Experiments:
Assay type in all cases: cell-based
[1] = target: T1, α1β1εδ nAChR (Mus musculus, UniProt P02716+P04756+P09690+P20782); test: Inhibition of control ACh responses by co-application, muscle α1β1εδ nAChR in oocytes; conditions: 3 μM compound co-applied with ACh; fraction of control ACh response
T1 construct: expressed in transfected cells; host or cells: Xenopus laevis oocytes
Protocol: (§1) Initial profiling against heteromeric receptors: The test compounds for their ability to activate or inhibit other nAChR subtypes were evaluated. Agonist activity was evaluated by applying the compounds at 100 or 30 μM to human α4β2 and α3β4 as well as to mouse muscle α1β1εδ nAChR expressed in Xenopus oocytes. […] The inhibitory activity was generally low (Table 3).
(§2) Molecular Biology: Plasmid DNAs encoding the human α7 and heteromeric nAChR were obtained from Jon Lindstrom (University of Pennsylvania, Philadelphia, PA). Mouse muscle subunit clones were obtained from Jim Boulter (Salk Institute, La Jolla CA) and Paul Gardner (Dartmouth, Hanover NH). The human resistance-to-cholinesterase 3 ([…]) clone was obtained from Millet Treinin (Hebrew University, Jerusalem, Israel) and RNA co-injected with α7 to improve the level and speed of receptor expression without affecting their pharmacological properties. Plasmid DNA encoding the human α10 nAChR was obtained from J. Michael McIntosh. Plasmid DNA encoding the human α9 nAChR and the human receptor-associated protein of the synapse (RAPSYN) with codon optimization for expression in Xenopus laevis were obtained from Katrin Richter. RAPSYN RNA was co-injected with the α9 and α10 to improve expression (Richter et al., (2022) Front. Cell Neurosci. 16: 779081). After linearization and purification of the plasmid DNAs, RNAs were prepared using the mMessage mMachine in vitro RNA transcription kit (Ambion, Austin, TX). Frogs were maintained in the Animal Care Service facility of the University of Florida, and all procedures were approved by the University of Florida Institutional Animal Care and Use Committee (approval number 202002669). In brief, the animals were first anesthetized for 15-20 min in 1.5 l frog tank water containing 1 g of MS-222 buffered with sodium bicarbonate. Oocytes were obtained surgically from mature female Xenopus laevis (Nasco, Ft. Atkinson WI, USA) and treated with 1.4 mg/ml type 1 collagenase (Worthington Biochemicals, Freehold NJ, USA) for 2-4 h at rt in Ca2+-free Barth's solution (88 mM NaCl, 1 mM KCl, 2.38 mM NaHCO3, 0.82 mM MgSO4, 15 mM HEPES, and 12 mg/l tetracycline, pH 7.6) to remove the ovarian tissue and the follicular layers. Stage V oocytes were injected with 4-6 ng CHRNA7 RNA and 2-3 ng RIC3 RNA (2:1 ratio) in 50 nl water, or with 12 ng CHRNA9 RNA and 3 ng RAPSN RNA, or along with 12 ng CHRNA10 RNA in 50 nl water. Oocytes were maintained in Barth's solution containing 0.32 mM Ca(NO3)2 and 0.41 mM CaCl2, and recordings were conducted 2-20 days after injection.
(§3) Electrophysiology: Two-electrode voltage-clamp experiments were conducted using OpusXpress 6000A (Molecular Devices, Union City CA, USA). Both the voltage and current electrodes were filled with 3 M KCl. Oocytes were voltage-clamped at −60 mV at rt. The oocytes were perfused with Ringer's solution (115 mM NaCl, 2.5 mM KCl, 1.8 mM CaCl2, 10 mM HEPES, 1 μM atropine, pH 7.2) at 2 ml/min. […] Drug applications were 12 s in duration followed by 181 s washout periods.
(§4) The responses were calculated as both peak-current amplitudes and net charge. Data were collected at 50 Hz, filtered at 20 Hz, and analyzed by Clampfit (Molecular Devices) and Excel (Microsoft, Redmond, WA, United States). Data are expressed as means±SEM from at least five oocytes for each experiment and plotted with Kaleidagraph 4.5.2 (Abelbeck Software, Reading, PA, United States). Each episode of data acquisition was a total of 210 s and included an initial 30 s period used to define the baseline for the drug-evoked responses. After 30 s, drugs were applied, and the following 120 s were defined as the drug response period for analysis. […] The values for the curve fits were generated using the Levenberg-Marquardt algorithm to obtain the best Chi-Square fit to the Hill equation using the Kaleidagraph 4.5.2 plotting program. The errors in the tables are the calculated standard errors of the fit parameters based on the goodness of fit.

[2] = target: T2, α4β2 nAChR (Homo sapiens, UniProt P17787+P43681); test: Inhibition of control ACh responses by co-application, α4β2 nAChR in oocytes; conditions: 3 μM compound co-applied with ACh; fraction of control ACh response
T2 construct: expressed in transfected cells; host or cells: Xenopus laevis oocytes
T2 sequence (P43681 29-627 limits assumed): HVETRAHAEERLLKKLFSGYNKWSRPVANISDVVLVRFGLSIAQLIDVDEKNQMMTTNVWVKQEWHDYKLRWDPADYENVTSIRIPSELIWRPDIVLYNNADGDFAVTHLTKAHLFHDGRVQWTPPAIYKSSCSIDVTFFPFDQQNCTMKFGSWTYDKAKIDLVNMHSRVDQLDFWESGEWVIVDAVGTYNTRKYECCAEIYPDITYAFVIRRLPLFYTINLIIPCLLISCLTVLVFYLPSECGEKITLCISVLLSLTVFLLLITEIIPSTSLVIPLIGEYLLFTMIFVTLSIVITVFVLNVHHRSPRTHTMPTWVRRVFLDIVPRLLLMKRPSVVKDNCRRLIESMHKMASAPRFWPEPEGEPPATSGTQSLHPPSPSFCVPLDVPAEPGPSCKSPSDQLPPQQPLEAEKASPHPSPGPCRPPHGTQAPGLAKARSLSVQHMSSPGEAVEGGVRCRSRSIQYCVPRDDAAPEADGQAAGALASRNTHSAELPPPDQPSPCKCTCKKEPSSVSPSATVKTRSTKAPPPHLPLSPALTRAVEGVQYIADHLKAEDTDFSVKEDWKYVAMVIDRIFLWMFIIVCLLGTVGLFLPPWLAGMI
T2 sequence (P17787 26-502): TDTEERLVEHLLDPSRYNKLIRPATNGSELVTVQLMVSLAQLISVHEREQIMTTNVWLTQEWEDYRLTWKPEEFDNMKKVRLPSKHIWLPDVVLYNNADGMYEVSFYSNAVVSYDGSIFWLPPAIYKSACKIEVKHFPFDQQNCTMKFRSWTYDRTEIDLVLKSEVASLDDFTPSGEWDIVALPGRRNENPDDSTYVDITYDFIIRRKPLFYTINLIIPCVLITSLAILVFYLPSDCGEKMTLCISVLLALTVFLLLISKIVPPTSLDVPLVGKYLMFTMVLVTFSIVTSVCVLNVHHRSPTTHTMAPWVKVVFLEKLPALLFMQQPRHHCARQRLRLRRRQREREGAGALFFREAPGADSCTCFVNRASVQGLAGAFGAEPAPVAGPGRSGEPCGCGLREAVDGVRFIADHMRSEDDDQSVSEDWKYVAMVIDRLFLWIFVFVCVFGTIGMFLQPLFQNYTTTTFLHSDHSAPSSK
Protocol: as §1, §2, §3, §4

[3] = target: T3, α7 nAChR (Homo sapiens, UniProt P36544); test: Two-electrode voltage-clamp, agonist concentration-response, α7 nAChR in Xenopus oocytes; conditions: net charge, ± standard error of fit; for α7 Imax: relative to ACh (Imax = 1)
T3 construct: expressed in transfected cells; host or cells: Xenopus laevis oocytes, injected with in vitro transcribed RNA
T3 sequence (P36544 23-502): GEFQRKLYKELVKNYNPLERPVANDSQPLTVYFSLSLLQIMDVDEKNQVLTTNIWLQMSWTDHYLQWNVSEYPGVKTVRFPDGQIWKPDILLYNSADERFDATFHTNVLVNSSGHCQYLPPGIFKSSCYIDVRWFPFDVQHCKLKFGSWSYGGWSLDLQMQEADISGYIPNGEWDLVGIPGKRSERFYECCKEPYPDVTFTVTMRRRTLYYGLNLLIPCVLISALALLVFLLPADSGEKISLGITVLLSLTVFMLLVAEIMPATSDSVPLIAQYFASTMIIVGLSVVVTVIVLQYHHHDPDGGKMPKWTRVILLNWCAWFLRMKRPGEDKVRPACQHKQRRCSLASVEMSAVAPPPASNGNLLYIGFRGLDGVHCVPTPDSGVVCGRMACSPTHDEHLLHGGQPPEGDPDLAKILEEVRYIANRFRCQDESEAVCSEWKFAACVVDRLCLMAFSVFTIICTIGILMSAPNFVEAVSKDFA
Description: (§5) Electrophysiology: Xenopus oocytes were microinjected with RNAs to produce functional nAChR which were characterized by two-electrode voltage-clamp measurements. FIGS. 5A-7D present concentration-response curves for the new compounds evaluated with α7, α9, and α9α10 receptors. Table 1 presents the values for Imax and EC50 with these receptors and Table 2 summarizes inhibition data for the compounds with heteromeric nAChR.
(§6) Molecular Biology: Plasmid DNAs encoding the human α7 and heteromeric nAChR were obtained from Jon Lindstrom (University of Pennsylvania, Philadelphia, PA). Mouse muscle subunit clones were obtained from Jim Boulter (Salk Institute, La Jolla CA) and Paul Gardner (Dartmouth, Hanover NH). […] Plasmid DNA encoding the human α10 nAChR was obtained from J. Michael McIntosh. Plasmid DNA encoding the human α9 nAChR and the human receptor-associated protein of the synapse (RAPSYN) with codon optimization for expression in Xenopus laevis were obtained from Katrin Richter. […] After linearization and purification of the plasmid DNAs, RNAs were prepared using the mMessage mMachine in vitro RNA transcription kit (Ambion, Austin, TX). […] Oocytes were maintained in Barth's solution containing 0.32 mM Ca(NO3)2 and 0.41 mM CaCl2, and recordings were conducted 2-20 days after injection.
(§7) Electrophysiology: Two-electrode voltage-clamp experiments were conducted using OpusXpress 6000A (Molecular Devices, Union City CA, USA). Both the voltage and current electrodes were filled with 3 M KCl. Oocytes were voltage-clamped at −60 mV at rt.
as §4

[4] = target: T4, α9 nAChR (Homo sapiens, UniProt Q9UGM1); test: Two-electrode voltage-clamp, agonist concentration-response, α9 nAChR in Xenopus oocytes; conditions: for EC50 / α9 Imax: peak currents, ± standard error of fit; for α9 Imax: relative to ACh (Imax = 1)
T4 construct: expressed in transfected cells; host or cells: Xenopus laevis oocytes, injected with in vitro transcribed RNA
T4 sequence (Q9UGM1 26-479 limits assumed): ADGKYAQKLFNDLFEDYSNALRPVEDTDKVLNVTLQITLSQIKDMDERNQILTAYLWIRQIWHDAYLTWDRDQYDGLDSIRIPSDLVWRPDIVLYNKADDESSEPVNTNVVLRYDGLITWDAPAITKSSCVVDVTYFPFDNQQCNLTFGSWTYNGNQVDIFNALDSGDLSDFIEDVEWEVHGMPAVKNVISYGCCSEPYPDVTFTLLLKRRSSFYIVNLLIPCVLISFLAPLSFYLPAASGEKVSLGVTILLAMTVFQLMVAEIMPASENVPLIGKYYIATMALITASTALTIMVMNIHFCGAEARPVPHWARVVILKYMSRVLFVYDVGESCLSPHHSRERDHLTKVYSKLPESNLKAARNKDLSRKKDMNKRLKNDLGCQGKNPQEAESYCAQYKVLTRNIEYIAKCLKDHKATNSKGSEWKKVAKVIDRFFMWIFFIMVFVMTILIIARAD
Description: as §5, §2, §3
as §4, with “The errors in the tables are the calculated standard errors of the fit parameters based on the goodness of fit.” left out

[5] = target: T5, α3β4 nAChR (Homo sapiens, UniProt P30926+P32297); test: Inhibition of control ACh responses by co-application, α3β4 nAChR in oocytes; conditions: 3 μM compound co-applied with ACh; fraction of control ACh response
T5 construct: expressed in transfected cells; host or cells: Xenopus laevis oocytes
T5 sequence (P32297 32-505): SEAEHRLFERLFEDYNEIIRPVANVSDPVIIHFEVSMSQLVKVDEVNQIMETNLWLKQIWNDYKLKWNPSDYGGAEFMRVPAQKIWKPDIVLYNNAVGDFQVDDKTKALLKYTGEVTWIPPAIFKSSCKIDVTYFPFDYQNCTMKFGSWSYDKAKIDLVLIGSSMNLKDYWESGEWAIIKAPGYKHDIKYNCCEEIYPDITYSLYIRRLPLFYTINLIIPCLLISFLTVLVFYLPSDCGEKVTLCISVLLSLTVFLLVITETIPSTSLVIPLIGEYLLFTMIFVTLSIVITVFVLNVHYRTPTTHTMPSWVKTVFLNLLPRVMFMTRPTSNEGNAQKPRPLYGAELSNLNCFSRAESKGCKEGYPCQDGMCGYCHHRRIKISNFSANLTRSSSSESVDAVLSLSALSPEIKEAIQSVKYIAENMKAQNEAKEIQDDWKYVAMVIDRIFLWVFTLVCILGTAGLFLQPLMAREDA
T5 sequence (P30926 22-498): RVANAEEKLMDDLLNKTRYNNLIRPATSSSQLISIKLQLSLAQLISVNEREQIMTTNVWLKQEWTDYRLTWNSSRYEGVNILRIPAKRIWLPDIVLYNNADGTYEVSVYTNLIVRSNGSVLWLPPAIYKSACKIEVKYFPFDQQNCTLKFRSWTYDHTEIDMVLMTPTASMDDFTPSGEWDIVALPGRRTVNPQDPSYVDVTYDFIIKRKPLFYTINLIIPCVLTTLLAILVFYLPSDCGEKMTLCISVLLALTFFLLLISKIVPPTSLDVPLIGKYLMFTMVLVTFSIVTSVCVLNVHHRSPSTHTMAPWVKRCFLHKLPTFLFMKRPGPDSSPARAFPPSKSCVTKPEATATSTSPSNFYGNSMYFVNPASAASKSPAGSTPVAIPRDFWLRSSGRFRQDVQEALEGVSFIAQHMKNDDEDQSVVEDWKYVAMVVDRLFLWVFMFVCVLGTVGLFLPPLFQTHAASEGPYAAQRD
Protocol: as §1, §2, §3, §4

[6] = target: T3, α7 nAChR; test: α7 responses to drugs co-applied with the PAM PNU-120596 (silent agonism); conditions: drug 30 μM + 10 μM PNU-120596; normalized to 30 μM ACh + 10 μM PNU-120596
Description: as §6, §7, §4

[7] = target: T6, α9α10 nAChR (Homo sapiens, UniProt Q9GZZ6+Q9UGM1); test: Two-electrode voltage-clamp, agonist concentration-response, α9α10 nAChR in Xenopus oocytes; conditions: for EC50 / α9α10 Imax: peak currents, ± standard error of fit; for α9α10 Imax: relative to ACh (Imax = 1)
T6 construct: expressed in transfected cells; host or cells: Xenopus laevis oocytes, injected with in vitro transcribed RNA
T6 sequence (Q9UGM1 26-479 limits assumed): as the sequence (Q9UGM1 26-479 limits assumed) above
T6 sequence (Q9GZZ6 25-450): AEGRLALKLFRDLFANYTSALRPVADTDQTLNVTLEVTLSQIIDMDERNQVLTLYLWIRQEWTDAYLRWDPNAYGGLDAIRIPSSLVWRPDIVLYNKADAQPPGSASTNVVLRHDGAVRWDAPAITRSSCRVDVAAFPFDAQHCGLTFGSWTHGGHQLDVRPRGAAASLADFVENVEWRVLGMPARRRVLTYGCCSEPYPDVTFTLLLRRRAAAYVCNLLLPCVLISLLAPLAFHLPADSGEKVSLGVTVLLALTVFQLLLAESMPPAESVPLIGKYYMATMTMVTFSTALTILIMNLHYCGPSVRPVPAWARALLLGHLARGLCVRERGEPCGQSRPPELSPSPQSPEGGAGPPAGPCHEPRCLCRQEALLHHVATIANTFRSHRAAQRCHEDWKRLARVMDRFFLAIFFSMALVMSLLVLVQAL
Description: as §5, §2, §3
as §4, with “The errors in the tables are the calculated standard errors of the fit parameters based on the goodness of fit.” left out

[8] = 3e vs larger ammonium analogs, 3h relative to 3g

Structure (SMILES)	Effect of co-application on the control ACh responses, α1β1εδ [1]	Effect of co-application on the control ACh responses, α4β2 [2]	EC50 [3] [µM]	α7 Imax [3]	Agonist character / efficacy at α9 [4]	Fold loss of potency at α9 relative to comparator compound [4, 8]	EC50 [4] [µM]	α9 Imax [4]	Effect of co-application on the control ACh responses, α3β4 [5]	Response co-applied with PNU-120596, normalized to ACh co-applied with PNU-120596 [6]	Agonist character / efficacy at α9α10 [7]	Fold loss of potency at α9α10 relative to comparator compound [7, 8]	EC50 [7] [µM]	α9α10 Imax [7]	Fold greater potency for α9 than for α7 ([4]; ratio of EC50 values) [fold]
Cc1cccc(NC(=O)c2ccc(N3CC[N+](C)(C)CC3)cc2)n1.[I-] [Compound 3e, 1,1-dimethyl-4-(4-((6-methylpyridin-2-yl)carbamoyl)phenyl)piperazin-1-ium iodide]	0.709 ± 0.091	0.912 ± 0.038	4.3 ± 1	0.57 ± 0.03 and 0.57	partial agonist	about 10 fold	7 ± 6	0.51 ± 0.07	0.838 ± 0.037	0.16	fully efficacious agonist	about 10 fold	4.2 ± 1.5	0.89 ± 0.07	–
CC[N+]1(C)CCN(c2ccc(C(=O)Nc3cccc(C)n3)cc2)CC1.[I-] [Compound 3f, 1-ethyl-1-methyl-4-(4-((6-methylpyridin-2-yl)carbamoyl)phenyl)piperazin-1-ium iodide]	0.413 ± 0.070	0.858 ± 0.045	4.3 to 6.4	0.40 ± 0.02 and 0.4	full agonist	–	–	1.19±0.03	0.849 ± 0.018	0.13	–	–	–	0.92±0.04	–
CC[N+]1(CC)CCN(c2ccc(C(N)=O)cc2)CC1 [Compound 1, 4-(4-carbamoylphenyI)-1,1-diethylpiperazin-1-ium iodide, reference compound]	–	–	76 ± 2	0.34 ± 0.01 and 0.34	full α9 agonist	–	1.15 ± 0.24	0.80 ± 0.03	–	0.18	–	–	13 ± 11	1.19 ± 0.25	66
